Measurements taken from patent US20080293587A1, “Method of Screening a Biological Target for Weak Interactions Using Weak Affinity Chromatography” (Transientic Interactions AB, priority 2005, published 2008).

Target: bovine serum albumin (BSA) (Bos taurus, UniProt P02769)
Conditions: bupivacain 1 mM; for retardation in zonal weak affinity chromatography in a well (peak apex): immobilized BSA, mobile phase 0.05 M sodium phosphate buffer pH 7.0, 20° C., UV 230 nm, propranolol 0.25 mM, sodium azide 0.5 mM
Experimental: 200 mg of reference gel (diol-silica) and assay gel (BSA-diol-silica) were suspended in 1 ml methanol and packed into each well in a 96-well filtering system (Captiva® 96-well 10μ glassfiber filter plate from Ansys Technologies (Company), see FIG. 1) using vacuum applied to the wells. The gel in the wells was first washed with 5 ml MeOH and then with 5 ml 0.1 M sodium phosphate buffer pH 7.0. Filter discs were placed on top of the gel material in each well.
Wells containing gel materials were washed carefully with 0.05 M sodium phosphate buffer pH 7.0 using vacuum collar to remove non-bound BSA, contaminants and entrapped air. The excess of buffer was gently removed from the surface of the wells using pipette and 10 μl of test substances were injected centrally in each wells which were then flushed with mobile phase (0.05 M sodium phosphate buffer pH 7.0). Vacuum was applied to the collar and the mobile phase was flowed into a 96 well collection plate (Nunclon, Nalgene-Nunc) within 8-10 seconds. Vacuum was then reduced and the collection plate (approximately 0.2 ml in each well) was replaced with a new one. This fraction collection process was repeated with 20-75 plates. During this procedure the wells were eluted with mobile phase continuously. […] The eluates in the plates were transferred carefully by automatic pipettes and weighed to estimate the retention volume. All procedures were performed at room temperature (20° C.). Eluted substances were detected by UV-scans at 230 nm. Chromatograms were obtained by plotting UV absorbance versus fraction volume.

Sequence of bovine serum albumin (BSA) (P02769 25-607): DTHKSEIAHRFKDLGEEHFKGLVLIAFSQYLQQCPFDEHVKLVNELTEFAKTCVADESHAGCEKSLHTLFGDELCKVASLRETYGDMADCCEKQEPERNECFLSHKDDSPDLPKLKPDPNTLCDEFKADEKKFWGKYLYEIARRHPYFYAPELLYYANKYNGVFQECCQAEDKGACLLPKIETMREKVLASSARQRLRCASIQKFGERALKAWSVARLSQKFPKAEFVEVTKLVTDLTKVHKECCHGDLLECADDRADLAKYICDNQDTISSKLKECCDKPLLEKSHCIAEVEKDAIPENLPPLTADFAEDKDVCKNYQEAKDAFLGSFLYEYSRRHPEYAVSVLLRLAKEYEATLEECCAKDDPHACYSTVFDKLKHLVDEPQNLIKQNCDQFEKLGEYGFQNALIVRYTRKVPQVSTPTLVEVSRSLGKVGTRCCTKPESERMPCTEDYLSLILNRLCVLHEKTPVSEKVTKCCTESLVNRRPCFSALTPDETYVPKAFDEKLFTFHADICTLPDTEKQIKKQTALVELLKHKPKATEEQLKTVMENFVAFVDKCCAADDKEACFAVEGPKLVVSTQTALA

| retardation in zonal weak affinity chromatography in a well (peak apex) | well-to-well reproducibility of retardation in zonal weak affinity chromatography (three different wells, chromatography repeated once in each well) | SMILES |
| --- | --- | --- |
| retarded | – | CC(C)NCC(O)COc1cccc2ccccc12 (stereo not drawn) [propranolol] |
| retarded | retarded | CCCCN1CCCCC1C(=O)Nc1c(C)cccc1C (stereo not drawn) [Bupivacain] |
